pIC50: −log10 of the molar value. Like-named read-outs stand apart in the source and are kept apart here.
Experiments:
[1] = target: T1, wild-type (WT) human TRPM7 (Homo sapiens, UniProt Q96QT4); experiment: Whole-cell recording of recombinant TRPM7 currents in transfected HEK293T cells (voltage ramps); assay type: cell-based
T1 construct: expressed in transfected cells; host or cells: HEK293T
Procedure: Electrophysiological recordings were made from HEK293T cells transfected wild-type (WT) human TRPM7 or the E1052A, and the D1054A mutant channels, as previously described.
Whole-cell and patch recordings were performed on HEK293T cells at room temperature (22-25°C) with Axopatch 200B (Molecular Devices, Sunnyvale, CA) amplifier. For whole-cell recordings, the Cs^+-based bath solution contained (in mM) 100 Cs-aspartate, 1 EGTA, 10 N-2-Hydroxyethylpiperazine-N'-thanesulfonic acid (HEPES) and 120 mannitol (pH adjusted to 7.4 with CsOH). When required, 1 mM ethyleneglycol-bis-(α-amino-ethyl ether) N,N'-tetra-acetic acid (EGTA) was replaced with added CaCl2 and MgCl2 as indictated in results section. The pipette solution contained 100 Cs-aspartate, 1 EGTA, 10 HEPES, 0.5 CsCl, and 100 mannitol (pH 7.4). The inhibition ratio (%) was calculated according to the following equation: inhibition ratio (%) = 100 × [1 - (INM)/(ICtl)], where ICtl is whole-cell current observed before application of NM at +100 and -100 mV. INM represents the current observed during application of NM.
Data were analyzed with Clampfit 9.2. (Molecular Devices, Sunnyvale, CA), Excel 2002 (Microsoft Corporation, Redmond, WA), Origin 5.0 (OriginLab Corp., Northhampton, MA) and finalized illustrated using CorelDraw X3 (Corel Corporation; Ontario, Canada). Currents were normalized to the amplitude of control responses. NM or DAPI inhibitory concentration-response plots were fitted to the logistic equation: I = (Amax-A0)/[1+(X/IC50)^n]+A0, where I is the normalized current amplitude, X is the antagonist concentration; n is Hill coefficient; IC50 is the concentration of antagonist that generate 50% of maximal inhibition. Results are reported for the text, the figures and amplitude histograms, as mean ± S.E.M. They represent the mean of n individual measurements on different cells. Statistical analysis was done with the unpaired or paired t-test, when appropriate. Chemicals are re-drawn based on the structures downloaded from Pubchem. NM was purchased from BioMol (Plymouth Meeting, PA) and its metabolites p-GBA and AN were from TCI and gabexate, DAPI, HSB from Sigma (St. Louis, MO).

[2] = test system: T2, human TRPM7 E1052A mutant; experiment: Whole-cell recording of E1052A mutant TRPM7 currents in HEK293T cells; assay type: cell-based; details: 1 mM NM; 0.1 mM Ca2+ and 0.1 mM Mg2+; inward current at -100 mV
T2 construct: expressed in transfected cells; host or cells: HEK293T
Procedure: Electrophysiological recordings were made from HEK293T cells transfected wild-type (WT) human TRPM7 or the […], and the […] mutant channels, as previously described. Whole-cell and patch recordings were performed on HEK293T cells at room temperature (22-25°C) with Axopatch 200B (Molecular Devices, Sunnyvale, CA) amplifier. […] When required, 1 mM ethyleneglycol-bis-(α-amino-ethyl ether) N,N'-tetra-acetic acid (EGTA) was replaced with added CaCl2 and MgCl2 as indictated in results section. […] INM represents the current observed during application of NM.

[3] = target: T3, TRPM7 current in cultured mouse hippocampal neurons (Mus musculus, UniProt Q923J1); experiment: Whole-cell voltage clamp of TRPM7 currents in cultured hippocampal neurons (low divalent cation-induced or compound-activated); assay type: cell-based
T3 construct: supports the substantial involvement of endogenous TRPM7 channels in the responses of neurons; endogenous in cells; host or cells: primary cultured hippocampal neurons from embryonic Swiss mice

[4] = test system: intracellular Ca2+ in cultured hippocampal neurons; experiment: Fura-2 calcium imaging in cultured hippocampal neurons; assay type: cell-based, mouse
Procedure: (§1) Time-pregnant Swiss mice (embryonic day 16) were anesthetized with halothane and were decapitated. Brains of fetuses were removed rapidly and placed in Ca^2+ and Mg^2+ free ice cold PBS. Whole hippocampus or cerebral cortices were dissected under a dissection microscope and incubated with 0.05% trypsin-EDTA for 10 min at 37°C, then triturated with fire-polished glass pipettes. Cells were counted and plated in poly-L-ornithine-coated culture dishes at a density of 1 × 10^6 cells per 35 mm diameter dish. Neurons were cultured with neurobasal medium supplemented with B27 and maintained at 37°C in a humidified 5% CO2 atmosphere incubator. Cultures were fed twice a week. Neurons at 14-21 day culture stages were used for electrophysiological recordings and calcium image.
Fura-2 fluorescent Ca^2+ imaging was performed as described previously. Cortical or hippocampal neurons grown on 25 mm round glass coverslips were washed three times with ECF and incubated with 5 μM Fura-2-AM for ~ 40 min at room temperature. Neurons were then washed three times and incubated in normal ECF for 30 min. Coverslips with Fura-2-loaded neurons were transferred to a perfusion chamber on the stage of an inverted microscope (Nikon TE300, Tokyo, Japan). Cells were illuminated using a xenon lamp (75W) and observed with a 40 × UV fluor oil-immersion objective lens. Video images were obtained using a cooled CCD camera (Sensys KAF 1401, Photometrics, Tucson, AZ) mounted on an inverted microscope (Nikon TE300, Tokyo, Japan). Digitized images were acquired, stored, and analyzed in a PC controlled by Axon Imaging Workbench software (AIW2.1, Molecular Devices, Sunnyvale, CA). The shutter and filter wheel (Lambda 10-2, Sutter Instrument, Novato, CA) were also controlled by AIW to allow timed illumination of cells at 340 and 380 nm excitation wavelengths. Fura-2 fluorescence was detected at an emission wavelength of 510 nm. Ratio images of 340/380 nm were analyzed by averaging pixel ratio values in circumscribed regions of cells in the field of view. […]

[5] = test system: intracellular Ca2+ in cultured mouse cortical neurons; experiment: Fura-2 calcium imaging in cultured cortical neurons; assay type: cell-based; details: NM 50 μM; without NM 1.17 ± 0.03
Procedure: as §1
Fura-2 fluorescent Ca^2+ imaging was performed as described previously. Cortical or hippocampal neurons grown on 25 mm round glass coverslips were washed three times with ECF and incubated with 5 μM Fura-2-AM for ~ 40 min at room temperature. […] Digitized images were acquired, stored, and analyzed in a PC controlled by Axon Imaging Workbench software (AIW2.1, Molecular Devices, Sunnyvale, CA). […] Fura-2 fluorescence was detected at an emission wavelength of 510 nm. Ratio images of 340/380 nm were analyzed by averaging pixel ratio values in circumscribed regions of cells in the field of view. […]

[6] = test system: cultured hippocampal neurons; experiment: On-cell loose-patch recording of low Ca2+-induced action potential firing; assay type: cell-based, mouse; details: NM 200 μM; induced by 0.5 mM Ca2+ and 0.5 mM Mg2+; control 8.5 ± 2.7 Hz
[7] = 200 μM, 0.1 mM Ca2+ and 0.1 mM Mg2+

T3 sequence (Q923J1 whole entry): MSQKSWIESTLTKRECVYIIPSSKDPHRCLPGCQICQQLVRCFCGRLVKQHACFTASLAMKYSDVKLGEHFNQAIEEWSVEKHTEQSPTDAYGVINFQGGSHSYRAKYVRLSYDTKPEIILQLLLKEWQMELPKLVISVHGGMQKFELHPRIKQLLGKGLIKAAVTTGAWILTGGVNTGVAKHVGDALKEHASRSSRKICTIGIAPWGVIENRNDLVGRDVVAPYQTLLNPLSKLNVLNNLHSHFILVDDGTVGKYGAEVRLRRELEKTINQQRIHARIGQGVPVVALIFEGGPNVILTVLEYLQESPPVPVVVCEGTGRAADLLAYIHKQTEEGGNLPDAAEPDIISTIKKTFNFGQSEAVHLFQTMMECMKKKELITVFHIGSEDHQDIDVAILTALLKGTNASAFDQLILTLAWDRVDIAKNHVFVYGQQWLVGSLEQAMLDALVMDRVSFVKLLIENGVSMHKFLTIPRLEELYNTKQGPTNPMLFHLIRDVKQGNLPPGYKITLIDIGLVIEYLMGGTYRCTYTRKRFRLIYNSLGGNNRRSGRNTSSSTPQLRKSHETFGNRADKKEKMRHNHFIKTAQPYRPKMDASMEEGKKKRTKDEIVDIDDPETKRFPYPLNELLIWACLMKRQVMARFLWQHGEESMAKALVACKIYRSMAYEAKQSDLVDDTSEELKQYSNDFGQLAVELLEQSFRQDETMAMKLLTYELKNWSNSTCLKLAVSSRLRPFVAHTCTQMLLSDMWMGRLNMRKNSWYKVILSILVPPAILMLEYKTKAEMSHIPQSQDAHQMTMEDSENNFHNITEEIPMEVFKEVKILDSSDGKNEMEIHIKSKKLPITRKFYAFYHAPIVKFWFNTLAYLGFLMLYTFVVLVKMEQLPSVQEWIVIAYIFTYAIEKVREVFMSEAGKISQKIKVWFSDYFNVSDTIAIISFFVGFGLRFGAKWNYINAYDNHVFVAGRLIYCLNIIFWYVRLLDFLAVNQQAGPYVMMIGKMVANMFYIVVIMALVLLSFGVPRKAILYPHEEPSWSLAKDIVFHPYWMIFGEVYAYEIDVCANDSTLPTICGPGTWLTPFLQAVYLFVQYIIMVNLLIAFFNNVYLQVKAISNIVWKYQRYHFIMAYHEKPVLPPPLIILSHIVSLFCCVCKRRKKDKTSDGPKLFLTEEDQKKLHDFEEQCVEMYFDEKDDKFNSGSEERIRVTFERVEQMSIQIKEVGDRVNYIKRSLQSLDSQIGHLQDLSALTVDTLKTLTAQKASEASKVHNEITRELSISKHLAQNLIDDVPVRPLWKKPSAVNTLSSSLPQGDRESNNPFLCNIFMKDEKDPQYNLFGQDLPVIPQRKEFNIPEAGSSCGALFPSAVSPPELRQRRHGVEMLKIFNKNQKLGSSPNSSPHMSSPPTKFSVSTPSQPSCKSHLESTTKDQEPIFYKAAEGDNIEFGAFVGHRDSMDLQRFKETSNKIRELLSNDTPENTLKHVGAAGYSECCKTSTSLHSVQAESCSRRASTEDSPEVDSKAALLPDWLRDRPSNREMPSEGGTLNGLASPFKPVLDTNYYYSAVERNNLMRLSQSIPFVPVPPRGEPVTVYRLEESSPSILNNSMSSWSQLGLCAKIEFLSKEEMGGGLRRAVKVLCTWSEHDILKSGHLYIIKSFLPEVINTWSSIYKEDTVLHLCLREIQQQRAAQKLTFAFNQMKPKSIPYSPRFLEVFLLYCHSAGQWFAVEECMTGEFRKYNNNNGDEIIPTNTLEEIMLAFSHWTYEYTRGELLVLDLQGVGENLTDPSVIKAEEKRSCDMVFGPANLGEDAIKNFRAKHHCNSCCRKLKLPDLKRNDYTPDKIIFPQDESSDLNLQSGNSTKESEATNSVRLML
T1 sequence (Q96QT4 whole entry): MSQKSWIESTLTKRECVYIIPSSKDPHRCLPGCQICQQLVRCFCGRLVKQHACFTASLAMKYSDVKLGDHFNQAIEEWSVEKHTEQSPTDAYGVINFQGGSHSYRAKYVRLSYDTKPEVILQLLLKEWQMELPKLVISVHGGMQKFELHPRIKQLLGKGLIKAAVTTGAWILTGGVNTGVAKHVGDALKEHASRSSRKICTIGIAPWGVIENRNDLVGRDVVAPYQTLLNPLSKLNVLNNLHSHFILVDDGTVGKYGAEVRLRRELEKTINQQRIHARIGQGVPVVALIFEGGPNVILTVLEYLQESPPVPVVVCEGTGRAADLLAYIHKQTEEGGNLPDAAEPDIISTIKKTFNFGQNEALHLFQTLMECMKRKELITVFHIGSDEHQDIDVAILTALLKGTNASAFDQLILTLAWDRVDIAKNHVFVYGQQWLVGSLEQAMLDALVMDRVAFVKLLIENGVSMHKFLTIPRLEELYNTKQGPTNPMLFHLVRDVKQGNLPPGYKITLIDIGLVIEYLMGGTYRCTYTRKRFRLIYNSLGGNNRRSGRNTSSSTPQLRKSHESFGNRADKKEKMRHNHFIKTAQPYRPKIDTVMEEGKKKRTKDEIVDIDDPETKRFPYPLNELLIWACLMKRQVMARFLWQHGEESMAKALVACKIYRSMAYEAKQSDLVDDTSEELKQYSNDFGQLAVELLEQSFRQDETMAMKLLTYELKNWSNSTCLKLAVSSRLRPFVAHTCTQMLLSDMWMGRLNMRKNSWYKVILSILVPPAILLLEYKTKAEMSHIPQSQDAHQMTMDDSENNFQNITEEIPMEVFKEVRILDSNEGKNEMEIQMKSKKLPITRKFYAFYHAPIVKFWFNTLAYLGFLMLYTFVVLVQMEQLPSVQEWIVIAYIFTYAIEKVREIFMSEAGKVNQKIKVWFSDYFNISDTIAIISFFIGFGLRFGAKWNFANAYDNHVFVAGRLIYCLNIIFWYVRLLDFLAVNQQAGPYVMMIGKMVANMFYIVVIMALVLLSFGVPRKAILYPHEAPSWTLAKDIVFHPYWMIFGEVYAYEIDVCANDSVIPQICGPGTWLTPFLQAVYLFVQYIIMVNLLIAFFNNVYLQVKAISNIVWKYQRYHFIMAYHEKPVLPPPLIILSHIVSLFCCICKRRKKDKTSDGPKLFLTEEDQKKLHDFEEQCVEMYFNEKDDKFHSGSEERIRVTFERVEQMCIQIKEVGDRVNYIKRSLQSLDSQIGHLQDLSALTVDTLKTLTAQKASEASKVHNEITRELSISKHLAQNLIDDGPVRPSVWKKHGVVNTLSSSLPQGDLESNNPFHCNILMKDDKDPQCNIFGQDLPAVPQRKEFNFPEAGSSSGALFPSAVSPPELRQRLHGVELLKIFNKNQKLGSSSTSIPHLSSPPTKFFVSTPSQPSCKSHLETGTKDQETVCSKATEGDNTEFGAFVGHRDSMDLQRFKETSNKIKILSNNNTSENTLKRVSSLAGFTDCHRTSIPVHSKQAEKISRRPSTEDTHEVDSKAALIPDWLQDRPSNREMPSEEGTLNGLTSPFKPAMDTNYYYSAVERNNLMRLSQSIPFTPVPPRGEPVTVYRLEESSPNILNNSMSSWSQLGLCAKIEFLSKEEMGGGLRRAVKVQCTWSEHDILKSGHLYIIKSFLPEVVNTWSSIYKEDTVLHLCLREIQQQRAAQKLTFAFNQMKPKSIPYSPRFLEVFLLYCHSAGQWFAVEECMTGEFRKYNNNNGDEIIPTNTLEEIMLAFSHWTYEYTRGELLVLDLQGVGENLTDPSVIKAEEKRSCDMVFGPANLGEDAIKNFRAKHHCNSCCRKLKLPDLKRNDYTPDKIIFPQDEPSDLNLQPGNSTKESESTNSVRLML

N=C(N)c1ccc2cc(OC(=O)c3ccc(N=C(N)N)cc3)ccc2c1 [NM, 6-amidino-2-naphthyl-4-guanidinobenzobate dimethanesulfonate]
effect on blocking potency of extracellular divalent cations ([1]; 500 μM NM): substantially reduced the blocking potency
increase of inhibitory potency in divalent-free solution versus 0.1 mM divalents ([1]; +100 mV): about 5 fold
Hill coefficient ([1]; +100 mV, 0.1 mM Ca2+ and 0.1 mM Mg2+): 1.4
pIC50 ([1]; +100 mV, 0.1 mM Ca2+ and 0.1 mM Mg2+, read-out: IC50, inhibition of outward TRPM7 current): 3.21
Hill coefficient ([1]; +100 mV, divalent free solution): 1.2
pIC50 ([1]; +100 mV, divalent free solution, read-out: IC50, inhibition of TRPM7 current): 3.92
increase of inhibitory potency in divalent-free solution versus 0.1 mM divalents ([1]; -100 mV): 30 fold
Hill coefficient ([1]; -100 mV, 0.1 mM Ca2+ and 0.1 mM Mg2+): 1.3
pIC50 ([1]; -100 mV, 0.1 mM Ca2+ and 0.1 mM Mg2+, read-out: IC50, inhibition of inward TRPM7 current): 3.29
Hill coefficient ([1]; -100 mV, divalent free solution): 1.3
pIC50 ([1]; -100 mV, divalent free solution, read-out: IC50, inhibition of TRPM7 current): 4.82
potentiation of TRPM7 currents ([1]; TRPM7-transfected HEK293T cells, ramp-clamp, inward currents at -100 mV): potentiates
inhibition of TRPM7 currents ([1]; in the presence of 1 mM Ca2+ and Mg2+): failed to inhibit
inhibition by NM of currents, relative to WT [2]: strongly depressed
direct activation of TRPM7 current at physiological divalent cations ([3]; 25 μM, 2 mM Ca2+ and 1 mM Mg2+): little effects
amplitude of NM-induced current ([3]; 0.1 mM Ca2+ (with 0.1 Mg2+)): 1018 ± 120 pA
potentiation of evoked TRPM7 current, pre-exposed ([3]; 200 μM applied before lowering divalent cations, current evoked by 0.1 mM Ca2+ and 0.1 mM Mg2+): about 3.6 ± 0.4 fold
offset time constant of inhibition [3, 7]: 1.07 ± 0.20 s
onset time constant of inhibition [3, 7]: 0.29 ± 0.04 s
direct activation of TRPM7 current at physiological divalent cations ([3]; 200 μM, 2 mM Ca2+ and 1 mM Mg2+): induced small inward currents
current amplitude upon NM washout ([3]; 200 μM, 2 mM Ca2+ and 1 mM Mg2+, brief washout): 379 ± 86 pA
amplitude of NM-induced current ([3]; 200 μM, 2 mM Ca2+ and 1 mM Mg2+, during application): 243 ± 66 pA
reversal potential of NM-induced current ([3]; 200 μM, 2 mM Ca2+ and 1 mM Mg2+, voltage ramps): 0 mV
block of TRPM7 current, co-applied ([3]; 200 μM, current evoked by 0.1 mM Ca2+ and 0.1 mM Mg2+): completely blocks
block of TRPM7 current, co-applied ([3]; 200 μM, current evoked by zero divalent cations): reversibly blocked
amplitude of NM-induced current ([3]; 2 mM Ca2+ (with 1 mM Mg2+)): 291 ± 52 pA
amplitude of NM-induced current ([3]; 10 mM Ca2+ (with 1 mM Mg2+)): 147 ± 20 pA
Hill coefficient ([3]; current evoked by 0.1 mM Ca2+ and 0.1 mM Mg2+): 1.4
pIC50 ([3]; current evoked by 0.1 mM Ca2+ and 0.1 mM Mg2+, -60 mV, acutely applied, read-out: IC50, block of TRPM7 current): 4.57
NM-induced change of intracellular concentration of Ca2+ ([4]; 200 μM, 2 mM Ca2+, no Mg2+, MK801, CNQX, nimodipine present): induced an increase
net increase of 340/380 ratio on lowering extracellular Ca2+ ([4]; NM 50 μM, Ca2+ from 2.0 mM to 0.5 mM, no added Mg2+, without NM 2.64 ± 0.48): 0.61 ± 0.32
net increase of 340/380 ratio induced by KCl ([4]; NM 50 μM, KCl 50 mM, 1.67 in the absence of NM): 1.84
net increase of 340/380 ratio on lowering extracellular Ca2+ [5]: 0.20 ± 0.08
firing frequency of action potentials [6]: 6.8 ± 2.9 Hz
